Laboratory results published in patent publication US20240189263A1, “DERIVATIZED C60 MOLECULES AND METHODS AND MATERIALS FOR USING DERIVATIZED C60 MOLECULES TO REDUCE RADIATION INJURY” (Mayo Foundation for Medical Education and Research, priority 2021, published 2024).

Assays:
[1] = SEM analysis of C60-ser aggregates; type: physicochemical; conditions: frozen and vacuum-dried solutions
Experimental: Solutions of C60-ser were frozen with liquid nitrogen and dried under high vacuum while still frozen. FIGS. 3A and 3B show example scanning electron microscopy (SEM) images of aggregates of C60-ser. The aggregates formed when solid C60-ser was dissolved in water or an aqueous salt solution. The aggregates formed within a period of seconds to several hours, after which the system remained in equilibrium.

NIH3T3 cells = test: MTS cytotoxicity assay, NIH3T3; type: cell-based
Experimental: Cytotoxicity of C60-ser was determined by an MTS (3-(4,5-dimethylthiazol-2-yl)-5-(3-carboxymethoxyphenyl)-2-(4-sulfophenyl)-2H-tetrazolim) colorimetric assay on four different cell lines, each representing a different cell type. Specifically, HepG2 (liver epithelium), HUVEC (endothelial cells), N2A (neuroblastoma cells representative of normal neurons), and NIH3T3 (fibroblasts) were analyzed. The cells were seed in a 96-well tissue culture polystyrene plate at different seeding concentrations based on the cell's doubling time. HUVEC cells were seeded at 10,000 cells/well (24 hour experiments), 8,000 cells/well (48 hour experiments), and 5,000 cells/well (72 hour experiments), and incubated for 24 hours in a humidified atmosphere with 5% C02 at 37° C. […] After incubation with MTS, the optical density (OD) of the resulting formazan solution was read at 490 nm using a microplate reader (Biotek Cytation 5 cell Imaging Multi-Mode reader, Winooski, VT). The cell viability was obtained by normalizing the absorbance of the sample with that of the control wells containing untreated cells. The cell viability was expressed as a percentage, assigning the viability of non-treated cells as 100%. […]

HepG2 cells = test: DNA damage, γH2AX foci immunofluorescence, HepG2; type: cell-based
Experimental: To test the ability of C60-ser to protect against radiation injury, the level of DNA damage in response to radiation was analyzed by measuring γH2AX. The H2AX protein becomes phosphorylated into γH2AX as a result of DNA double strand breaks. This allows for the visualization and quantification of double strand break foci through immunofluorescence analysis. Cells were plated on 8 chamber slides and incubated overnight before C60-ser treatment. Three sets of slides per cell line (to be irradiated with 0, 0.5, and 1 Gy) were prepared, with the top 4 rows used as a control and the bottom 4 rows incubated with 100 μM C60-ser. Cells were incubated with C60-ser for 2 hours before irradiation with a clinical Proteus One proton machine (Ion Beam Applications, Louvain-la-Neuve, Belgium). A 230 MeV mono-energetic unmodulated broad beam of large field size that encompassed all slides containing the cells was used to deliver the 0.5 and 1 Gy doses. White solid water slabs (IBA Dosimetry, Germany) provided the necessary phantom material to place the cells at the desired 8 cm depth with an LET of approximately 1.7 keV/μm. After irradiation, cells were incubated at 37° C. with 5% CO2 for 30 minutes before washing and fixing the cells with 1% formaldehyde. The cells were permeabilized with 1% NP-40 and incubated with 5% BSA to block unspecific antibody bonding. The cells were then incubated with γH2AX primary antibody followed by a secondary antibody. Mounting media containing DAPI was used before applying cover slips and sealing the samples. Cells were imaged on an Olympus IX71 trinocular inverted fluorescence phase contrast microscope with a 40× objective. The resulting images were analyzed by ImageJ, and the foci were counted.

HUVEC cells = test: Seahorse mitochondrial respiration (oxygen consumption rate), HUVEC; type: cell-based; conditions: pretreated 2 hours before 1 Gy 230 MeV proton
Experimental: The oxygen consumption rates were assessed in N2A, HUVEC, NIH3T3, and HepG2 cell lines with a Seahorse XFe96 (Agilent Technologies, Santa Clara, CA, USA). Cells were treated with 0 and 1 Gy of 230 MeV proton irradiation. The control plates were run at about the same time post plating. Each cell line was optimized prior to these experiments, and data was presented normalized to cell number plated. The standard mitochondrial stress test was performed using serial injections of oligomycin (1.5 μM), carbonyl cyanide p-(trifluoromethoxy)phenylhydrazone (FCCP, 1 μM), and rotenone/antimycin A mixture (0.5 μM). After injection of oligomycin, which inhibits ATP synthase (complex V), there was a drop in electron flow through the electron transport chain (ETC) and a resultant drop in oxygen consumption rate (OCR) of the cells. Injection of FCCP collapsed the proton gradient and allowed for uninhibited electron flow through the ETC supercomplexes. […] The reserve respiratory capacity was calculated by subtracting the basal respiratory capacity from the maximal respiratory capacity.

## O=C(NC(CO)CO)C1(C(=O)NC(CO)CO)C23c4c5c6c7c8c4-c4c2c2c9c%10c4C4%11c%12c-%10c%10c%13c%14c%12-c%12c(c-7c7c%15c%12C%14%12C(C(=O)NC(CO)CO)(C(=O)NC(CO)CO)C%12%14c%12c%16c%17c%18c(c%12-%15)C7%12C(C(=O)NC(CO)CO)(C(=O)NC(CO)CO)C6%12c6c-5c5c7c(c6-%18)C%176C(C(=O)NC(CO)CO)(C(=O)NC(CO)CO)C6%12c6c-7c(c-2c2c6-c6c%12c-%16c%14c-%13c6C%106C(C(=O)NC(CO)CO)(C(=O)NC(CO)CO)C926)C513)C84C%11(C(=O)NC(CO)CO)C(=O)NC(CO)CO (stereo not shown) [C60-ser, C60-serinol]
[1]
  internal diameters of hollow hull aggregates: 40-1000 nm
NIH3T3 cells; NIH3T3, 1000 μM
  percent viability at the highest dose: downward trend
NIH3T3 cells; NIH3T3, 1-1000 μM, 24, 48 or 72 hours
  percent viability: did not result in a significant decrease in viability
HepG2 cells; HepG2, 100 μM 2 hours before 0.5 Gy proton radiation
  γH2AX foci vs control: trend towards reduction in total foci formed, but it was not statistically significant
HepG2 cells; HepG2, 100 μM 2 hours before 1 Gy proton radiation
  γH2AX foci vs control: significant decrease in the number of foci
HepG2 cells; HepG2, 100 μM 2 hours, absence of radiation
  γH2AX foci vs control: no significant different in foci expression
HUVEC cells
  radiation-induced increase in respiratory capacity: dampened and, in some cases, reduced to normal or slightly below normal levels
